{
  "source": "patent EP4644403A1",
  "about": "“HALOGEN-CONTAINING COMPOUNDS USED FOR CAPPING THE 5' END OF NUCLEIC ACID AND USE THEREOF” (Shenzhen Rhegen Biotechnology Co., Ltd., priority 2023, dated 2024)",
  "biological_target": "T1, T7 RNA polymerase (Escherichia phage T7, UniProt P00573)",
  "T1 construct": "purchased",
  "T1 sequence (P00573 whole entry)": "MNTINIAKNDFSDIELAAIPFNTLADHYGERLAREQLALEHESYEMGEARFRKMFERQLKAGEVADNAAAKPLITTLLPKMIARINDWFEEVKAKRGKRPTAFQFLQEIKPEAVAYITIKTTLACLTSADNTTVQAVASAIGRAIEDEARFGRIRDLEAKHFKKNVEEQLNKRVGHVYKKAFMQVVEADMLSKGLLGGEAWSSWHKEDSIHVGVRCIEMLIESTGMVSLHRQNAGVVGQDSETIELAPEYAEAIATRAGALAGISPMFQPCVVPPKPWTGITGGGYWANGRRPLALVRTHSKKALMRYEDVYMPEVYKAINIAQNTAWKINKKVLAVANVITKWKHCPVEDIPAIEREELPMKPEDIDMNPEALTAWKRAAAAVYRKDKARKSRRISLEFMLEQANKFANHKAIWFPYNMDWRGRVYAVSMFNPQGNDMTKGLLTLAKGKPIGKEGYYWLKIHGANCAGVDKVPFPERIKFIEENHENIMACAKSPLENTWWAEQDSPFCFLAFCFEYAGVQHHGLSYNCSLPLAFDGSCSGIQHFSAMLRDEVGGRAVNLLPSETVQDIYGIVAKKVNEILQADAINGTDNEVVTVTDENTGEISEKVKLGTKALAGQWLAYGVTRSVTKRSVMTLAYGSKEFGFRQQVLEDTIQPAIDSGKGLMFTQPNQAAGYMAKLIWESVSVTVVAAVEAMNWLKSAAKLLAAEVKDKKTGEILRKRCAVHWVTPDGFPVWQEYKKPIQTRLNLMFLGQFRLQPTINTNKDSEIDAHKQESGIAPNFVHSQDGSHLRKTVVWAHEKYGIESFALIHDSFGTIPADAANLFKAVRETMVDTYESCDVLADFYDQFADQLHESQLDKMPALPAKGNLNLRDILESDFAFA",
  "experiment": "Capped mRNA synthesis by in vitro transcription with cap analog (product amount, Nanodrop One)",
  "assay_type": "biochemical",
  "conditions": "per 1 mL reaction system; in vitro transcription at 37°C, 4 hours; purified mRNA quantified with Nanodrop One",
  "description": "• a) A plasmid was linearized and a DNA template was purified. • b) Capping analogs of the present invention and Comparative Example 1 Trilink CleanCap, cap analogs of Comparative Example 2 and Comparative Example 3 were used to synthesize mRNA by in vitro transcription, respectively. Comparative Example 1 was commercially purchased, and Comparative Example 2 and Comparative Example 3 were obtained according to the method disclosed in WO2022/036858. [drawing 172]\nTable 1 In vitro transcription system\nc) During the experiment, the above reagents were fully mixed and incubated at 37°C. After 4 hours, deoxyribonuclease (DNase) was added and incubated for 30 minutes to remove the DNA template. After digestion, LiCl solution was added, precooled and centrifuged at 1,6000 rpm for 15 minutes to remove the supernatant. 70% ethanol was added and centrifuged to remove the supernatant again, and then a certain amount of enzyme-free water was added for storage. […] Table 2 amount (mg) of final product obtained per 1 mL of mRNA synthesis reaction system",
  "data": [
    {"smiles": "C[n+]1cn([C@@H]2O[C@H](COP(=O)(O)OP(=O)(O)OP(=O)(O)OC[C@H]3O[C@@H](n4cnc5c(N)ncnc54)[C@H](O)[C@@H]3OP(=O)(O)OC[C@H]3O[C@@H](n4cnc5c(=O)[nH]c(N)nc54)[C@H](F)[C@@H]3O)[C@@H](O)[C@H]2O)c2nc(N)[nH]c(=O)c21", "note": "[Compound 8]", "values": [
      {"measurement": "Product amount: amount (mg) of final product obtained per 1 mL of mRNA synthesis reaction system", "result": 4.7, "unit": "mg"}
    ]},
    {"smiles": "C[n+]1cn([C@@H]2O[C@H](COP(=O)(O)OP(=O)(O)OP(=O)(O)OC[C@H]3O[C@@H](n4ccc(=O)[nH]c4=O)[C@H](F)[C@@H]3OP(=O)(O)OC[C@H]3O[C@@H](n4cnc5c(=O)[nH]c(N)nc54)[C@H](F)[C@@H]3O)[C@@H](O)[C@H]2O)c2nc(N)[nH]c(=O)c21", "note": "[Compound 68]", "values": [
      {"measurement": "Product amount: amount (mg) of final product obtained per 1 mL of mRNA synthesis reaction system", "result": 5.8, "unit": "mg"}
    ]}
  ]
}
